Experiments:
[1] = molecular target: Cruzipain (Trypanosoma cruzi) (UniProt P25779); experiment: Second order rate constant for inactivation of cruzain of Trypanosoma cruzi
[2] = tested on: Trypanosoma cruzi; experiment: Effect on survival time of against […] macrophages infected with Trypanosoma cruzi trypomastigotes at a concentration of 10 uM; format: functional
[3] = tested on: Trypanosoma cruzi; experiment: Effect on survival time of against […] macrophages infected with Trypanosoma cruzi trypomastigotes at a concentration of 30 uM; format: functional, organism-based

Cruzipain (Trypanosoma cruzi), sequence (P25779 123-467 limits assumed): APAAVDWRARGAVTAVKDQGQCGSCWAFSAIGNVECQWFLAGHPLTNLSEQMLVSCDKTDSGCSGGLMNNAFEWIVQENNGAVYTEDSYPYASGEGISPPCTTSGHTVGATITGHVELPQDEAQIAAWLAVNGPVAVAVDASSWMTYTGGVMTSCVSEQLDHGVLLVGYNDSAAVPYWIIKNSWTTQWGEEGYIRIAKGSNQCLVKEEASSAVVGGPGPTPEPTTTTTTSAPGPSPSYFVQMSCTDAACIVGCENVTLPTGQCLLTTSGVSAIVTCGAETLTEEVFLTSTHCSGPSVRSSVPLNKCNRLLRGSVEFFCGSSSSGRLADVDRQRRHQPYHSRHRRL

| SMILES | K ass [1] [M⁻¹ s⁻¹] | Survival time [2] | Survival time [3] |
| --- | --- | --- | --- |
| CN1CCN(C(=O)N[C@@H](Cc2ccccc2)C(=O)N[C@H](/C=C/S(=O)(=O)c2ccccc2)CCc2ccccc2)CC1 [K-777] | 420000 | >24 days | – |
| O=C(N[C@H](/C=C/S(=O)(=O)c1ccccc1)CCc1ccccc1)[C@H](Cc1ccccc1)NC(=O)N1CCOCC1 | 181000 | >24 days | – |
| O=C(N[C@H](/C=C/S(=O)(=O)Nc1ccccc1)CCc1ccccc1)[C@H](Cc1ccccc1)NC(=O)N1CCOCC1 | 4.92e+06 | 9 days | – |
| CN1CCN(C(=O)N[C@@H](Cc2ccccc2)C(=O)N[C@H](/C=C/S(=O)(=O)Oc2ccccc2)CCc2ccccc2)CC1 | 720000 | 9 days | – |
| O=C(N[C@H](/C=C/S(=O)(=O)Cc1ccccc1)CCc1ccccc1)[C@H](Cc1ccccc1)NC(=O)N1CCOCC1 | 1.67e+06 | 20 days | – |
| CN1CCN(C(=O)N[C@@H](Cc2ccccc2)C(=O)N[C@H](/C=C/S(=O)(=O)NOCc2ccccc2)CCc2ccccc2)CC1 | 6.48e+06 | >24 days | – |
| O=C(N[C@@H](Cc1ccccc1)C(=O)N[C@H](/C=C/S(=O)(=O)Oc1ccccc1)CCc1ccccc1)OCc1ccccc1 | 1.68e+07 | – | Toxic |
| O=C(N[C@H](/C=C/S(=O)(=O)Oc1ccccc1)CCc1ccccc1)[C@H](Cc1ccccc1)NC(=O)N1CCOCC1 | 1.02e+07 | Toxic | – |
| O=C(N[C@@H](Cc1ccccc1)C(=O)N[C@H](/C=C/S(=O)(=O)Nc1ccccc1)CCc1ccccc1)OCc1ccccc1 | 242000 | 6 days | – |
| O=C(N[C@H](/C=C/S(=O)(=O)NOCc1ccccc1)CCc1ccccc1)[C@H](Cc1ccccc1)NC(=O)N1CCOCC1 | 2.27e+06 | >24 days | – |
| CN1CCN(C(=O)N[C@@H](Cc2ccccc2)C(=O)N[C@H](/C=C/S(=O)(=O)Cc2ccccc2)CCc2ccccc2)CC1 | 3.85e+06 | 13 days | – |
| O=C(N[C@@H](Cc1ccccc1)C(=O)N[C@H](/C=C/S(=O)(=O)Cc1ccccc1)CCc1ccccc1)OCc1ccccc1 | 1.4e+06 | 6 days | – |
| CN1CCN(C(=O)N[C@@H](Cc2ccccc2)C(=O)N[C@H](/C=C/S(=O)(=O)Nc2ccccc2)CCc2ccccc2)CC1 | 1.26e+06 | 9 days | – |

From ChEMBL document CHEMBL1133816, “Potent second generation vinyl sulfonamide inhibitors of the trypanosomal cysteine protease cruzain” (2001)
